Source: paper PMC12073159, “Inhibition Mechanism of Mulberry Prenylated Flavonoids Sanggenone D/Kuwanon G Against α-Glucosidase and the Regulation of Glucose via GLUT4 Pathway” (Nutrients, 2025)
“Also recorded” adds a separate entry of the source.

How the values were obtained:
[1] = biological target: α-glucosidase; details: cited from earlier work
[2] = tested on: α-glucosidase; experiment: Fluorescence quenching spectroscopy (Stern–Volmer); type: binding
Method: A total of 100 μL of 1 U/mL α-glucosidase extract was mixed with […] of different concentrations (sanggenone D: 0, 1, 5, 10, 20, 50, 60 μg/mL; kuwanon G: 0, 1, 5, 10, 20, 40, 60 μg/mL) and incubated at three temperatures of 298 K, 304 K, and 310 K for 5 min. Then, the mixture were scanned with fluorescence spectroscopy (SpectraMax i3x, Molecular Devices, LLC., San Jose, CA, USA). The excitation wavelength was set at 280 nm, the emission wavelength was 300–500 nm, and the widths of both excitation and emission slits were 5 nm. The fluorescence quenching parameters were calculated according to the following equations.
Stern–Volmer dynamic collision quenching equation:(5) F0/F=1+KSVQ=1+Kqτ0Q (6) lgF0−F/F=lgKa+nlg[Q]
F0 and F represent the fluorescence intensity peaks of α-glucosidase without and with the compound, respectively; [Q] is the sample concentration; and τ0 is the protein’s average lifetime (10^−8 s).

[3] = tested on: HepG2 cells; experiment: Cellular glucose, TC and TG content in high-glucose model HepG2 cells; type: cell-based, human; details: 20, 80 μg/mL, 24 h, compared with the model group
Method: DMEM complete medium was configured with 88% DMEM high glucose medium, 10% fetal bovine serum, 1% double antibodies, and 1% non-essential amino acids. HepG2 cells were seeded in the complete medium and incubated at 37 °C with 5% CO2. When the cell confluence grew to 80–90%, the passage was carried out at a ratio of 1:3. According to the method of Cao et al., a hyperglycemic model was established through insulin induction.
The sample concentration (sanggenone D: 20, 80 μg/mL; kuwanon G: 20, 80 μg/mL) used in this experiment was determined by a CCK8 experiment. HepG2 cells were inoculated with 2 × 10^5 in a 12-well plate and cultured for 24 h. After being attached to the well, the samples containing different concentrations were replaced and the cells were treated for 24 h. The relevant indexes were determined by the kit method according to the instructions of the manufacturer. Each measurement was performed in triplicate.

[4] = biological target: α-glucosidase; experiment: α-glucosidase inhibitory activity (p-NPG, absorbance at 405 nm); type: biochemical; details: 1 U/mL α-glucosidase, pH 6.8, 37 °C, p-NPG substrate; read-out: IC50 (semi-inhibitory concentration)
Method: Subsequently, 50 μL of 2 mmol/L p-NPG was added, and the mixture was incubated at 37 °C for 20 min. Finally, 50 μL of 1 mol/L Na2CO3 was added to an ice bath for 5 min to terminate the reaction. The absorbance was measured at 405 nm, and the α-glucosidase inhibitory activity was calculated according to Formula (1). All experiments were performed in triplicate.(1) Inhibition rate of enzyme activity/%=(1−Aa−Ab/Ac−Ad)×100%
Aa is the absorbance of the sample group, Ab is the absorbance of the sample background group (equal volume of buffer instead of enzyme solution), Ac is the absorbance of the control group (equal volume of buffer instead of the sample solution), and Ad is the absorbance of the control background group (equal volume of buffer instead of the sample and enzyme solution).

[5] = tested on: CPT-1; experiment: Western blotting, CPT-1 expression in HepG2 cells; type: cell-based, human
[6] = tested on: α-glucosidase; experiment: Inhibition kinetics assay (Lineweaver–Burk); type: biochemical; details: for Inhibition type: Lineweaver–Burk plots; for Ki: inhibitory constant on α-glucosidase
Method: The inhibition assay of α-glucosidase was adapted from MORTEZA, with some modification. A total of 50 μL of α-glucosidase solution (1 U/mL) was added to 96-well plates, and 50 μL of sample solution with different concentrations (sanggenone D: 0, 20, 100, 200 μg/mL; kuwanon G: 0, 10, 20, 40 μg/mL) was incubated at 37 °C for 10 min. Subsequently, different concentrations of pNPG solution were added and incubated at 37 °C for 20 min. Finally, sodium carbonate solution (50 μL, […]) was added to terminate the reaction. Colorimetry was performed at 405 nm using a spectrophotometer to determine the change in absorbance of the enzymatic reaction system. The reversible inhibitory effect types of sanggenone D and kuwanon G on the enzyme were analyzed by the Lineweaver–Burk equation. The relevant parameters were calculated using Formulas (2)–(4).
In the formula, V represents the reaction rate, and Vm represents the maximum reaction rate. [I] is the concentration of the compound sample, and [S] is the substrate concentration. Km represents the Michaelis constant, and KI and KIS represent the inhibitory constants of the compound sample on α-glucosidase and the α-glucosidase–substrate complex, respectively.

[7] = tested on: HepG2 cells; experiment: CCK-8 toxicity test of HepG2 cells; type: cell-based, human; details: 24 h
Method: DMEM complete medium was configured with 88% DMEM high glucose medium, 10% fetal bovine serum, 1% double antibodies, and 1% non-essential amino acids. HepG2 cells were seeded in the complete medium and incubated at 37 °C with 5% CO2. When the cell confluence grew to 80–90%, the passage was carried out at a ratio of 1:3. According to the method of Cao et al., a hyperglycemic model was established through insulin induction. HepG2 cells in the logarithmic growth stage were inoculated with 4 × 10^4 cells per well in a 96-well plate and cultured at 37 °C and 5% carbon dioxide for 24 h. After the cell coverage reached 80%, 100 µL of sanggenone D and kuwanon G with different concentrations were added for 24 h. Then, 100 µL CCK-8/complete culture solution (1:9) was added to each well, and the absorbance at 450 nm was measured by an enzymoleter after 1 h of culture. The toxicity test was conducted in triplicate.(8) Cell survival rate (%)=Asample/Acontrol×100%

[8] = tested on: p-AMPK; experiment: Western blotting, p-AMPK in HepG2 cells; type: cell-based, human; details: compared with the model group
[9] = tested on: GLUT4; experiment: Western blotting, GLUT4 expression in HepG2 cells; type: cell-based, human; details: compared with the model group
Method: The tissue proteins were extracted with cold total protein extraction buffer (TPEB) [98% RIPA buffer (Solarbio, Beijing, China), 1% phosphatase inhibitor mix (Sangon Biotech, Shanghai, China), and 1% protease inhibitor mix (Cell Signaling Technology, Danvers, MA, USA)], and protein concentration was determined by the bicinchoninic acid assay (BCA) method. A total of 20 μg of protein samples were separated by SDS-PAGE and transferred to a polyvinylidene difluoride (PVDF) membrane. The membrane was washed with PBST for 5 min, then incubated with 5% skim milk at room temperature for 1 h. Subsequently, the membrane was cleaned with PBST five times for 5 min and incubated overnight at 4 °C with the primary antibodies [ACC (Zenbio #381131; 1:750 dilution), AMPK (Zenbio #380431; 1:500 dilution), p-AMPK (Zenbio #340763; 1:750 dilution), CPT-1 (proteintech #15184-1-AP 1:3000 dilution), and GLUT4 (Zenbio #347063; 1:1000 dilution)]. Finally, the membrane was incubated with the secondary antibody (Abmart #T40104, 1:3000 dilution) at room temperature for 1 h. Chemiluminescent visualization of the protein bands was achieved using an ECL system (Millipore, Burlington, MA, USA) and documented with Image Lab software for PC Version 6.1 (Bio-Rad, South Granville, NSW, Australia). Densitometric analysis of the resulting bands was conducted using ImageJ 2 software.

| SMILES | KSV ([2]; 298 K) | Ka ([2]; 298 K) | Kq ([2]; 298 K) | KSV ([2]; 304 K) | Ka ([2]; 304 K) | Kq ([2]; 304 K) | KSV ([2]; 310 K) | Ka ([2]; 310 K) | Kq ([2]; 310 K) | Glucose content in HepG2 cells [3] | TC content in HepG2 cells [3] | TG content in HepG2 cells [3] | IC50 [4] [µM] | Expression of CPT-1 [5] | Inhibition type [6] | Ki [6] [µM] | GLUT4 expression [9] | further results |
| --- | --- | --- | --- | --- | --- | --- | --- | --- | --- | --- | --- | --- | --- | --- | --- | --- | --- | --- |
| COc1cc(/C=C/C(=O)O)ccc1O [ferulic acid] | – | – | – | – | – | – | – | – | – | – | – | – | – | – | – | – | – | IC50 for α-glucosidase [1]: 866 µg/mL |
| CC(C)=CCc1c(-c2ccc(O)cc2O)oc2c([C@H]3C=C(C)C[C@@H](c4ccc(O)cc4O)[C@@H]3C(=O)c3ccc(O)cc3O)c(O)cc(O)c2c1=O [kuwanon G] | 5.41 ± 0.01 ×10^4 L/mol | 36.85 ± 0.17 ×10^3 L/mol | 5.41 ± 0.01 ×10^12 L/mol | 4.91 ± 0.03 ×10^4 L/mol | 194.98 ± 0.42 ×10^3 L/mol | 4.91 ± 0.03 ×10^12 L/mol | 3.35 ± 0.01 ×10^4 L/mol | 1984.27 ± 0.33 ×10^3 L/mol | 3.35 ± 0.01 ×10^12 L/mol | significantly reduced | significantly reduced | significantly reduced | 38.3 | significantly upregulated | competitive inhibition type | 83.5 | notably up-regulated | Survival percentage of HepG2 cells ([7]; concentration less than 80 μg/mL): above 90%; p-AMPK [8]: significantly promoted |
| CC(C)=CCC12Oc3cc(O)ccc3C1(O)Oc1cc(O)c(C3C=C(C)CC(c4ccc(O)cc4O)C3C(=O)c3ccc(O)cc3O)c(O)c1C2=O (centres unmarked) [sanggenone D] | 3.90 ± 0.04 ×10^4 L/mol | 7.28 ± 0.21 ×10^3 L/mol | 3.90 ± 0.04 ×10^12 L/mol | 3.24 ± 0.02 ×10^4 L/mol | 16.73 ± 0.14 ×10^3 L/mol | 3.24 ±0.02 ×10^12 L/mol | 2.56 ± 0.02 ×10^4 L/mol | 180.18 ± 0.30 ×10^3 L/mol | 2.56 ±0.02 ×10^12 L/mol | significantly reduced | significantly reduced | significantly reduced | 45.1 | significantly upregulated | non-competition/anti-competition mixed inhibition; also recorded: mixed inhibition of noncompetitive and anticompetitive | 253 | notably up-regulated | Survival percentage of HepG2 cells ([7]; concentration less than 100 μg/mL): above 90% |
